Key:
[1] = test system: GfCNMT; assay: N-alkylation substrate screen using GfCNMT (LC-MS); type: biochemical, Glaucium flavum; design: key: −=no detectable quantities of product N-alkylated compound; Trace, +, ++, +++=increasing relative levels of product N-alkylated compound; Trace, +, ++, +++=increasing relative levels of product N-alkylated compound; Trace, +, ++, +++=increasing relative levels of product N-alkylated compound; Trace, +, ++, +++=increasing relative levels of product N-alkylated compound; conditions: 25 μg protein, 1 mM substrate, 1 mM SAM, 60 mM HEPES pH 8, 16 hours at 37° C.; relative level of N-alkylated product by LC-MS
Experimental: (§1) The GfCNMT, GfTNMT and PsRNMT coding sequences were amplified from Glaucium flavum (GfCNMT and GfTNMT) or Papaver somniferum (PsRNMT) cDNA using gene-specific primers containing attB recombination sites with Q5 HiFi DNA polymerase (NEB). Recombination reactions were carried out using BP and LR Clonase II (Thermo Scientific) to generate individual pDONR221 entry plasmids and, subsequently, individual pHGWA plasmids for heterologous expression of polyhistidine (HIS6)-tagged recombinant GfCNMT, GfTNMT and PsRNMT. Protein overexpression was carried out at 18° C. using E. coli ArcticExpress (Agilent) grown in Studier's autoinduction media.
(§2) Total soluble protein was extracted from each culture and the recombinant NMTs were purified using TALON cobalt affinity resin (Clontech) followed by desalting and concentration with Amicon Ultra-30 centrifugal filters (EMD Millipore). Protein concentration was determined using the Bradford method, and purity was assessed by SDS-PAGE followed by Coomassie staining.
(§3) Forty-four nitrogenous molecules were screened as potential substrates for EsNMT using a standardized assay (25 μg protein, 1 mM substrate, 1 mM SAM, 60 mM HEPES pH 8, 16 hours at 37° C.). In addition, a representative subset was screened as potential substrates for GfCNMT, GfTNMT and PsRNMT under identical conditions. For each substrate and enzyme combination, negative control assays were carried out using protein heated to 100° C. (boiled) for 20 minutes. Assays were quenched with 9 volumes of methanol, centrifuged to pellet insoluble debris and the supernatants were stored at −20° C. prior to analysis.
(§4) Assay supernatants were analyzed by liquid chromatography-mass spectrometry (LC-MS). LC-MS analysis was performed using a 1200 HPLC coupled with a 6410 triple-quadrupole MS (Agilent). Samples (2 μl) were injected onto a Luna […] Phenyl-Hexyl 100 Å HPLC column and analytes were eluted in a gradient of solvent A (0.1% Formic acid, 5% v/v methanol in water) and solvent B (0.1% Formic acid in methanol) at a flow rate of 300 μl per minute. The gradient began at 0% B, reached 35% B by 12 minutes, then increased to 85% B at 14 min and remained at that level until 18 minutes. Subsequently, the mixture returned to 0% B over a period of 3 minutes before a final 6 minute re-equilibration period. Analytes were applied to the mass analyzer using an electrospray ionization probe operating in positive mode with the following condition: capillary voltage, 4000V; fragmentor voltage, 100V, source temperature, 350° C.; nebulizer pressure, 50 PSI; gas flow 10 L/min. Ions were detected in full scan mode where quadrupoles 1 and 2 were set to RF only, whereas the third quadrupole scanned from 100-500 m/z over 525 milliseconds. Substrate acceptance by the enzymes was determined according to the formation of a peak with a 14-m/z increase in mass, corresponding to methylated substrate and a decrease in the substrate peak area, relative to the appropriate boiled control assay.
(§5) Each of the alkaloid substrates shown in Table 1 were incubated with the following N-alkyltransferases: GfCNMT (SEQ. ID NO: 3), gfTNMT (SEQ. ID NO: 4) and Ps RNMT ([…]) and EsNMT (SEQ. ID NO: 2), as described in Example 1. The presence of N-alkylated alkaloid product was detected as described in Examples 1-20. Legend: ND=Not Determined; −=no detectable quantities of product N-alkylated compound; and Trace, +, ++, +++=increasing relative levels of product N-alkylated compound.

[2] = test system: GfTNMT; assay: N-alkylation substrate screen using GfTNMT (LC-MS); type: biochemical, Glaucium flavum; design: key: −=no detectable quantities of product N-alkylated compound; Trace, +, ++, +++=increasing relative levels of product N-alkylated compound; Trace, +, ++, +++=increasing relative levels of product N-alkylated compound; Trace, +, ++, +++=increasing relative levels of product N-alkylated compound; Trace, +, ++, +++=increasing relative levels of product N-alkylated compound; conditions: 25 μg protein, 1 mM substrate, 1 mM SAM, 60 mM HEPES pH 8, 16 hours at 37° C.; relative level of N-alkylated product by LC-MS
Experimental: as §1, §2, §3, §4, §5

[3] = test system: PsRNMT; assay: N-alkylation substrate screen using PsRNMT (LC-MS); type: biochemical, Papaver somniferum; design: key: −=no detectable quantities of product N-alkylated compound; Trace, +, ++, +++=increasing relative levels of product N-alkylated compound; Trace, +, ++, +++=increasing relative levels of product N-alkylated compound; Trace, +, ++, +++=increasing relative levels of product N-alkylated compound; Trace, +, ++, +++=increasing relative levels of product N-alkylated compound; conditions: 25 μg protein, 1 mM substrate, 1 mM SAM, 60 mM HEPES pH 8, 16 hours at 37° C.; relative level of N-alkylated product by LC-MS
Experimental: as §1, §2, §3, §4, §5

[4] = test system: EsNMT; assay: N-alkylation substrate screen using EsNMT (LC-MS); type: biochemical, Ephedra sinica; design: key to N-alkylation of substrate alkaloid compounds, Enzyme EsNMT: −=no detectable quantities of product N-alkylated compound; Trace, +, ++, +++=increasing relative levels of product N-alkylated compound; Trace, +, ++, +++=increasing relative levels of product N-alkylated compound; Trace, +, ++, +++=increasing relative levels of product N-alkylated compound; Trace, +, ++, +++=increasing relative levels of product N-alkylated compound; conditions: for N-alkylation of substrate alkaloid compounds, Enzyme EsNMT: 25 μg protein, 1 mM substrate, 1 mM SAM, 60 mM HEPES pH 8, 16 hours at 37° C., relative level of N-alkylated product by LC-MS; for N-alkylated alkaloid product detected after incubation with EsNMT (SEQ. ID NO: 2): incubated in accordance with Example 1, LC-MS
Experimental: The EsNMT coding sequence was amplified from Ephedra sinica cDNA using gene-specific primers containing restriction sites with Q5 HiFi DNA polymerase (NEB). Restriction digests and ligations (NEB) were carried out to generate a pQE plasmid (Qiagen) for heterologous expression of HIS6-tagged recombinant EsNMT. Protein overexpression was carried out at 18° C. in Escherichia coli SG13009 (Qiagen) grown in lysogeny broth (LB) to which 0.5 mM isopropyl β-D-1-thiogalactopyranoside (IPTG) was added.
as §2, §3, §4, §5

Row | Compound | N-alkylation of substrate alkaloid compounds, Enzyme GfCNMT [1] | N-alkylation of substrate alkaloid compounds, Enzyme GfTNMT [2] | N-alkylation of substrate alkaloid compounds, Enzyme PsRNMT [3] | N-alkylation of substrate alkaloid compounds, Enzyme EsNMT [4] | N-alkylated alkaloid product detected after incubation with EsNMT (SEQ. ID NO: 2) [4]
1 | CC(C)NC[C@H](O)COc1cccc2ccccc12 (racemic) [Propanolol, propanolol, reference compound] | ++ | +++ | +++ | + | 
2 | CC(N)c1ccccc1 (stereo not drawn) [1-Phenylethaneamine, 1-phenylethan-1-amine] |  |  |  | − | No N-alkylated alkaloid product compounds were detected
3 | NCCc1ccccc1 [2-Phenylethaneamine, 2-phenylethan-1-amine] | Trace | Trace | − | + | 
4 | N[C@@H](Cc1ccc(O)c(O)c1)C(=O)O [3,4-dihydroxyphenylalanine] |  |  |  | − | No N-alkylated alkaloid product compounds were detected
5 | Nc1ncnc2nc[nH]c12 [Adenine, adenine] |  |  |  | − | No N-alkylated alkaloid product compounds were detected
6 | Nc1ccccc1C(=O)O [Anthrallic acid, anthranilic acid] |  |  |  | − | No N-alkylated alkaloid product compounds were detected
7 | NCc1ccccc1 [Benzylamine, benzylamine] |  |  |  | − | No N-alkylated alkaloid product compounds were detected
8 | C[C@H](N)C(=O)c1ccccc1 [Cathinone, cathinone] |  |  |  | + | 
9 | NCCc1ccc(O)c(O)c1 [Dopamine, dopamine] |  |  |  | − | No N-alkylated alkaloid product compounds were detected
10 | CN[C@@H](C)[C@H](O)c1ccccc1 [Ephedrine, ephedrine, reference compound] | − |  | − | + | 
11 | CC[C@@H]1CN2CCc3c([nH]c4cccc(OC)c34)[C@@H]2C[C@@H]1/C(=C\OC)C(=O)OC [Mitragynine, mitragynine] |  |  |  | − | No N-alkylated alkaloid product compounds were detected
12 | CNC(C)C(=O)c1ccccc1 (stereo not drawn) [N-Methyl-cathinone, N-methyl-cathinone] |  |  |  | + | 
13 | Oc1ccc(CC2NCCc3cc(O)c(O)cc32)cc1O (stereo not drawn) [Norlaudanosoline, norlaudanosoline] |  |  |  | − | No N-alkylated alkaloid product compounds were detected
14 | C[C@H](N)[C@@H](O)c1ccccc1 [Norpseudoephedrine, norpseudoephedrine] |  |  |  | + | 
15 | NCC(O)c1ccc(O)cc1 (stereo not drawn) [Octopamine, octopamine] |  |  |  | − | No N-alkylated alkaloid product compounds were detected
16 | COc1ccc(Cc2nccc3cc(OC)c(OC)cc23)cc1OC [Papaverine, papaverine, reference compound] |  |  |  | Trace | 
17 | CC(C)(N)Cc1ccccc1 [Phentermine, phentermine, reference compound] |  |  |  | + | 
18 | N[C@@H](Cc1ccccc1)C(=O)O [Phenylalanine, phenylalanine] |  |  |  | − | No N-alkylated alkaloid product compounds were detected
19 | CN[C@@H](C)[C@@H](O)c1ccccc1 [Pseudoephedrine, pseudoephedrine, reference compound] |  |  |  | + | 
20 | CNCC(O)c1ccc(O)cc1 (stereo not drawn) [Synephrine, synephrine] |  |  |  | + | 
21 | CC1NCCc2cc(O)c(O)cc21 (stereo not drawn) [THQ1, 1-methyl-6,7-dihydroxy-1,2,3,4-tetrahydroisoquinoline] |  |  |  | + | 
22 | NCCS(=O)(=O)O [Taurine, taurine] |  |  |  | − | No N-alkylated alkaloid product compounds were detected
23 | Cn1cnc2c1c(=O)[nH]c(=O)n2C [Theobromine, theobromine] |  |  |  | − | No N-alkylated alkaloid product compounds were detected
24 | CN1[C@@H]2CC[C@H]1CC(=O)C2 [Tropinone, tropinone] |  |  |  | − | No N-alkylated alkaloid product compounds were detected
25 | N[C@@H](Cc1c[nH]c2ccccc12)C(=O)O [Tryptophan, tryptophan] |  |  |  | − | No N-alkylated alkaloid product compounds were detected
26 | N[C@@H](Cc1ccc(O)cc1)C(=O)O [Tyrosine, tyrosine] |  |  |  | − | No N-alkylated alkaloid product compounds were detected
27 | O=c1[nH]c(=O)c2ncn([C@@H]3O[C@H](CO)[C@@H](O)[C@H]3O)c2[nH]1 [Xanthosine, xanthosine] |  |  |  | − | No N-alkylated alkaloid product compounds were detected
28 | CN(C)c1ccc(C=O)cc1 [p-dimethylaminobenzaldehyde] |  |  |  | − | No N-alkylated alkaloid product compounds were detected
29 | methylephedrine |  |  |  | + | 

Reference: patent US20210087593A1, “N-[…] ALKALOID COMPOUNDS” (Willow BioSciences Inc., priority 2017, published 2021)
